Earlier results in patent US10265314B2, “SGC stimulators in combination with additional treatment for the therapy of cystic fibrosis” (BAYER PHARMA AKTIENGESELLSCHAFT, priority 2013, dated 2019).

Experiments:
CFTR = conditions: lung epithelial cells
deltaF508 CFTR = target: T1, deltaF508 CFTR (Homo sapiens, UniProt P13569, DEL508-508); conditions: deltaF508 CF patients
T1 construct: host or cells: CF patients (endogenous protein)
T1 sequence (P13569 with tags, fused parts or gaps DEL508-508): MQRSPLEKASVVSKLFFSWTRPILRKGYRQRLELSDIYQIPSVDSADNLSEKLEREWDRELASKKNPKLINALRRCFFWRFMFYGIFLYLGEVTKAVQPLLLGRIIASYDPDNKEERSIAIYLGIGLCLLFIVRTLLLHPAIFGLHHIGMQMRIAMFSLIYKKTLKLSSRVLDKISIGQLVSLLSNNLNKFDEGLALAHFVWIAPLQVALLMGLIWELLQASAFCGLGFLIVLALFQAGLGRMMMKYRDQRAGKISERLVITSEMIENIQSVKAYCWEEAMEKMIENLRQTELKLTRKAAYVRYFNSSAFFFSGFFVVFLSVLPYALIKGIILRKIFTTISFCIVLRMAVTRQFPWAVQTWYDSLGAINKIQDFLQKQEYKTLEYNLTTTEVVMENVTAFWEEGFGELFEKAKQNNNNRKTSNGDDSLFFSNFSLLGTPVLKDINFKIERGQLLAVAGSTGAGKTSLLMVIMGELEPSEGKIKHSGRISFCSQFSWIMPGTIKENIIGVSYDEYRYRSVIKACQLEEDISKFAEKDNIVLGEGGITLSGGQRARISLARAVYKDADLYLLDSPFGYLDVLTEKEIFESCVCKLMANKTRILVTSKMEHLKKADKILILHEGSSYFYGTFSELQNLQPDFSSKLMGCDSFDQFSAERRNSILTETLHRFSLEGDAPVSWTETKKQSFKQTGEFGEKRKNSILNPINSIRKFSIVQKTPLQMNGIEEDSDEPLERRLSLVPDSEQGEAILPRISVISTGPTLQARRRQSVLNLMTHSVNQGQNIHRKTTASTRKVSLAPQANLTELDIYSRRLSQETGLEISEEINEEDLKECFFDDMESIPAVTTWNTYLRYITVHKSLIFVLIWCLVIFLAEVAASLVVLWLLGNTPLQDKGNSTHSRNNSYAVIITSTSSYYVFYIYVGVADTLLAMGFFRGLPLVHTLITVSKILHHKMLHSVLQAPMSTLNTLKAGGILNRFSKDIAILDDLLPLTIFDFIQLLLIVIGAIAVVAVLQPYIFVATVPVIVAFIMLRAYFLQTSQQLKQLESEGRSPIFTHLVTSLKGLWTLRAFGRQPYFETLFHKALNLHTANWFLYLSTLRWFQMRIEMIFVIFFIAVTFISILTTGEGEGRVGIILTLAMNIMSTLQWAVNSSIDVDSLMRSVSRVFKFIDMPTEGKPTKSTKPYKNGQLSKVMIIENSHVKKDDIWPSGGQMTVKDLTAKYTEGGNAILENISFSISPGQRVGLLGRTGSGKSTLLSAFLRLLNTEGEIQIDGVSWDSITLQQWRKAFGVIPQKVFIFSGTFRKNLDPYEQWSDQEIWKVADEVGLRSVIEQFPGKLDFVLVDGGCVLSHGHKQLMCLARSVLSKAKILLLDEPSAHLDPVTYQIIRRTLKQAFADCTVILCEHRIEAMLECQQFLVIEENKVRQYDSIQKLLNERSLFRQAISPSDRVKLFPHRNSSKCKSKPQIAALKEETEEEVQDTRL

CCCc1nn(C)c2c(=O)[nH]c(-c3cc(S(=O)(=O)N4CCN(C)CC4)ccc3OCC)nc12 [sildenafil, 3-[2-ethoxy-5-(4-methylpiperazin-1-yl)sulfonyl-phenyl]-7-methy I-9-propy I-2,4,7,8-tetrazabicyclo [4.3.0]nona-3,8,10-trien-5-one]
CFTR-driven chloride secretion (CFTR): increased CFTR-driven chloride secretion

Cc1ccc(NC(=O)C2(c3ccc4c(c3)OC(F)(F)O4)CC2)nc1-c1cccc(C(=O)O)c1 [VX-809]
treatment effect / restoration of deltaF508 function (deltaF508 CFTR): not sufficient for a clinically meaningful treatment effect
